Results on one compound are retold here after patent US6667037B1, “Isolated peptides which bind to HLA-B35 molecules, larger peptides which contain these, nucleic acid molecules encoding peptides, and uses thereof” (Ludwig Institute for Cancer Research, priority 1998, dated 2003).

Assay [1] has as its system LG2-EBV cells (express HLA-B*3503). Kind of assay: 51Cr release assay: lysis of peptide-pulsed LG2-EBV cells by CTL 35-24. It is filed as cell-based, human. The settings on record: LG2-EBV cells (HLA-B*3503). An excerpt: (§1) The same TNF assay as is described in example 2, supra, was used, except fragments of tyrosinase cDNA, rather than complete cDNA molecules, were used. Three fragments were positive, and these corresponded to nucleotides 1-1086, 427-1134, and 703-1134 of the coding region of tyrosinase cDNA. A fragment corresponding to position 574-831 was negative, leading to the conclusion that nucleotides 831-1086 encoded for the presented antigen. These correspond to amino acids 270-362 of tyrosinase, whose amino acid sequence is known. This amino acid sequence was compared to known peptides, which bind to HLA-B*3501, and its binding motif, as described by Rammensee, et al., supra, incorporated by reference. This reference describes a binding motif for HLA-B35 which is a nonapeptide, where Pro is found at position 2, and Tyr is found at position 9. For decapeptides, Ramensee, et al, gives P2 and Y10 as anchors. HLA-B*3501 was used because no information was found in the art for HLA-B*3503. Ramensee et al. also gives Phe, Met, Leu, and Ile as auxiliary anchors for P9. The peptide defined by amino acid sequence LPSSADVEF (SEQ ID NO: 1) satisfies these requisites, and is found at amino acids 312-320 of tyrosinase. […] The ^51Cr release was measured after 3.5 hours.

In assay [2] the test system is HA7-EBV cells (express HLA B*3501). Briefly: 51Cr release assay: lysis of peptide-pulsed HA7-EBV cells by CTL 35-24. Format: cell-based, human. The settings on record: HA7-EBV cells (HLA B*3501).
Description: as §1

Where [3] appears, read: varying concentrations of peptide.

Where a SMILES comes first, the peptide text is derived from it.

Take `CC(C)C[C@H](N)C(=O)N1CCC[C@H]1C(=O)N[C@@H](CO)C(=O)N[C@@H](CO)C(=O)N[C@@H](C)C(=O)N[C@@H](CC(=O)O)C(=O)N[C@H](C(=O)N[C@@H](CCC(=O)O)C(=O)N[C@@H](Cc1ccccc1)C(=O)O)C(C)C` [SEQ ID NO: 1, LPSSADVEF] (H-LPSSADVEF-OH; N-terminus and C-terminus assumed): the EC50 was 1 nM in assay [1] (30 minutes with peptide, then CTL 35-24, effector:target 5:1, 51Cr release after 3.5 hours, read-out: dose of peptide giving half maximal lysis) and ~10 nM in assay [2] (30 minutes with peptide, then CTL 35-24, 51Cr release after 3.5 hours, read-out: dose of peptide giving half maximal lysis). Moreover, the “lysis of peptide-pulsed cells by CTL 35-24” value in assay [1] (setting [3]) and in assay [2] (setting [3]) was “provoked lysis” in each case.
